These results are taken from patent US9120770B2, “Substituted pyridine and pyrazine compounds as PDE4 inhibitors” (DART NEUROSCIENCE (CAYMAN) LTD., priority 2013, dated 2015).

pEC50: −log10 of the molar value.

PDE4D3, sequence (Q08499 1-673 isoform Q08499-2): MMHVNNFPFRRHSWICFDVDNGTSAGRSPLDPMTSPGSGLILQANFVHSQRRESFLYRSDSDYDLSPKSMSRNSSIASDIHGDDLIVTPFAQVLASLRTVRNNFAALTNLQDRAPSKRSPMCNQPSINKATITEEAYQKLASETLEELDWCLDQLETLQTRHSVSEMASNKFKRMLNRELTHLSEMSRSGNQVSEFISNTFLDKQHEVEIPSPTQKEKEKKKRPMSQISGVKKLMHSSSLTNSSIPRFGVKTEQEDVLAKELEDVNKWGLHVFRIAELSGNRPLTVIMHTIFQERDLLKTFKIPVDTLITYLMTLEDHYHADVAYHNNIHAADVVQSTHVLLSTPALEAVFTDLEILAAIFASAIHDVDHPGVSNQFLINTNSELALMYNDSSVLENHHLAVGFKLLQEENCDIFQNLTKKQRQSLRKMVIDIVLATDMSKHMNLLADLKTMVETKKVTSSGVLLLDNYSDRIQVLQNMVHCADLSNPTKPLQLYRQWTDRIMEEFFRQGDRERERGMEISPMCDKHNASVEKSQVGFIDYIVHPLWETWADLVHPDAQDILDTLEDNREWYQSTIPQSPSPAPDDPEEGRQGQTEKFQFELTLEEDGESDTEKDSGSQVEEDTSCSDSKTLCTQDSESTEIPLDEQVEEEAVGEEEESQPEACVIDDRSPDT

This experiment has as its target PDE4D3 (Homo sapiens, UniProt Q08499).
Regarding `COc1ncc(Cc2ccc(C(N)=O)cc2)nc1-c1cccc(Cl)c1` [Example 113, 4-{[6-(3-Chlorophenyl)-5-methoxypyrazin-2-yl]methyl}benzamide], the pEC50 (in general, the negative decadic logarithm of the EC50, by convention in mol/L) was 6.00 to 7.00.
The molecule `CCOc1ncc(Cn2cc(C(F)F)nn2)cc1-c1cccc(OC(F)F)c1` [Example 269, 3-[3-(Difluoromethoxy)phenyl]-5-{[4-(difluoromethyl)-1H-1,2,3-triazol-1-yl]methyl}-2-ethoxypyridine] showed a pEC50 of 6.00 to 7.00.
With `COC(=O)c1ncnn1Cc1cnc(OC)c(-c2cccc(Cl)c2)n1` [Example 195, Methyl 1-{[6-(3-chlorophenyl)-5-methoxypyrazin-2-yl]methyl}-1H-1,2,4-triazole-5-carboxylate], the pEC50 was 5.00 to 6.00.
In the case of `CN(C)c1ncn(Cc2cnc(OC(F)F)c(-c3cccc(Cl)c3)c2)n1` [Example 239, 1-{[5-(3-Chlorophenyl)-6-(difluoromethoxy)pyridin-3-yl]methyl}-N,N-dimethyl-1H-1,2,4-triazol-3-amine] it was 6.00 to 7.00; in that of `CCOc1ncc(Cn2cnc(C(=O)OC)n2)nc1-c1cccc(OC(F)F)c1` [Example 191, Methyl 1-((6-(3-(difluoromethoxy)phenyl)-5-ethoxypyrazin-2-yl)methyl)-1H-1,2,4-triazole-3-carboxylate], 6.00 to 7.00; in that of `COc1ncc(Cn2nccc2N)cc1-c1cccc(OC(F)F)c1` [Example 233, 1-({5-[3-(Difluoromethoxy)phenyl]-6-methoxypyridin-3-yl}methyl)-1H-pyrazol-5-amine], 6.00 to 7.00.
For `CNc1ncc(Cc2cnc(OC(F)F)c(-c3cccc(Cl)c3)c2)cn1` [Example 93, 5-{[5-(3-Chlorophenyl)-6-(difluoromethoxy)pyridin-3-yl]methyl}-N-methylpyrimidin-2-amine], the pEC50 is > 7.00.
The result for `COc1ncc(Cc2cnc(N)nc2)cc1-c1ccnc(OC(F)F)c1` [Example 47, 5-({5-[2-(Difluoromethoxy)pyridin-4-yl]-6-methoxypyridin-3-yl}methyl)pyrimidin-2-amine] reads > 7.00; that for `COc1ncc(Cn2cncn2)cc1-c1cccc(S(C)(=O)=O)c1` [Example 9, 3-(3-Methanesulfonylphenyl)-2-methoxy-5-(1H-1,2,4-triazol-1-ylmethyl)pyridine], < 5.00.
